According to US8871210B2, “Chemokine receptor antagonists and use thereof” (Ono Pharmaceutical Co., Ltd., priority 2005, dated 2014):

Molecular target: T1, CXCR4 (Homo sapiens, UniProt P61073)
T1 construct: a human T cell strain in which CXCR4 is known to be expressed; endogenous in cells; host or cells: CEM cells (human T cell strain)
Assay: Inhibition of binding of human 125I-SDF-1 to CEM cells
Settings: 125I-SDF-1, human T cell strain CEM cells, 4° C., 60 minutes
Source text: Specifically, as a system of screening a compound that inhibits the binding between SDF-1 and CXCR4, for example a system of measuring the binding between iodine-labeled SDF-1 and a human T cell strain in which CXCR4 is known to be expressed is operable. The identical idea is possible since macrophage (R5) HIV and RANTES, MIP-1α, and MIP-1β all bind to CCR5.
Study for Inhibition of Binding Human SDF-1 to CEM Cells
To human T cell strain CEM cells in a binding buffer (containing HEPES and BSA), the test compound and ^125I-SDF-1 (NEN) were added and the mixture was incubated at 4° C. for 60 minutes. The reacted CEM cells were rapidly filtrated with a GF/B membrane filter plate (Packard) to adsorb. The plate was washed with PBS three times and then dried. Microscint+20 (Packard) was added thereto. An amount of the radioactivity bound to the CEM cells was measured using Top Count (Packard) and inhibition (%) of the test compound was calculated according to the following equation: Inhibition={(Et−Ea)/(Et−Ec)}×100
Et: amount of radioactivity when the test compound is not added,
Ec: amount of radioactivity when non-radioactive SDF-1 (Pepro Tech) is added in an amount of 1000 times as much as ^125I-SDF-1 as a test compound, and
Ea: amount of radioactivity when the test compound is added.

T1 sequence (P61073 whole entry): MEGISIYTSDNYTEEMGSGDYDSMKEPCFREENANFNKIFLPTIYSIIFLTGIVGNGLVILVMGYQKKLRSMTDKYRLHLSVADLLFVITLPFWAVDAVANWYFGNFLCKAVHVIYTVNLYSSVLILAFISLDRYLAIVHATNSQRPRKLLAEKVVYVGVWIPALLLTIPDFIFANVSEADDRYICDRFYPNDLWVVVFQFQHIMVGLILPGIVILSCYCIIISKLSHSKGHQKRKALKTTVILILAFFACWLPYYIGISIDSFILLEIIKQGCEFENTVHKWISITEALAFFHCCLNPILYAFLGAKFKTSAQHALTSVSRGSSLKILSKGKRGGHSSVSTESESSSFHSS

Q: Which IC50 does the source give for Cc1ccsc1CN1CCC2(CC1)CCN(Cc1ccc(C(=O)C(Cc3ncc[nH]3)Cc3ncc[nH]3)cc1)C2 [compound 14, 3-(1H-imidazol-2-yl)-2-(1H-imidazol-2-ylmethyl)-1-[4-({8-[(3-methyl-2-thienyl)methyl]-2,8-diazaspiro[4.5]dec-2-yl}methyl)phenyl]propan-1-one] here?
A: 11 nM
